Data on one compound can be found in patent US8247615B2, “Process of converting esterified xanthophylls from Capsicum to non-esterified xanthophylls in high yields and purities” (Kalamazoo Holdings, Inc., priority 2010, dated 2012).

Holding throughout (type): physicochemical
Series [1] in a line: Solubility of zeaxanthin in solvents (saturated solution, residue weighed). The conditions noted are these: organic solvent or mixture, thermodynamic from solid. The source says:
In a procedure identical to that described in Example 6 up until almost the final methanol desolventization step, rather than desolventizing the zeaxanthin methanol slurry, it was transferred along with 1.5 parts water (by volume) to a continuous extractor containing 1 part dichloromethane. The slurry was extracted with dichloromethane for four hours at which time the dichloromethane solution in the receiver was decanted away from the crystalline zeaxanthin that had formed. The crystals thereby obtained were 95.1% pure all-trans-zeaxanthin. The yield obtained was only 12.6%, but this experiment was only intended to produce purified zeaxanthin crystals. […] These crystals were homogenized in a mortar and pestle and added to separate vials containing various solvents until a saturated solution was obtained. In order to measure the solubility of zeaxanthin in different solvents (shown in Table 7 below), a 5.0 ml portion of the saturated supernatant was filtered, desolventized, and the residues weighed.

Series [2] can be described thus: Stability of zeaxanthin in strongly basic (pH~14) aqueous methanolic potassium hydroxide at room temperature for 15 days. How it is done: A reaction was carried out using the same reactants at the same proportions under the same conditions as reaction 19 in the table in Example 1. The procedure was identical for the first 24 hrs as described for reaction 19, but after refluxing for 24 hours, the mixture was allowed to settle for 1 hour at which time the upper hexane layer was decanted away. The remaining lower phase was washed twice by partitioning with water (30 mL for each wash). In each case the lower aqueous phase was discarded and after the second water wash, methanol (75 mL) was added to the remaining upper phase. The mixture was then distilled to remove the remaining hexanes and then refluxed for five hours. The mixture was then allowed to cool and was centrifuged and decanted to afford a supernatant and a crude precipitate. […] The purity was 17.4%. In a separate experiment, the mixture was allowed to cool after distilling away hexane (i.e. the five hour reflux described above was not carried out) and placed in a separating funnel for 15 days at which time the supernatant was removed by decanting to afford a crude precipitate. […] The supernatant and both wash solutions were analyzed for zeaxanthin content and >99% of the input zeaxanthin was accounted for, even after sitting in caustic solution for two weeks!

Series [3] can be described thus: Stability of cis and trans isomers of zeaxanthin to the analytical sample preparation conditions. The conditions noted are these: analytical saponification in refrigerator, between 2 and 119 hours. As for the experimental part:
[…]
Using the sample preparation conditions above, duplicate samples were prepared from the same oleoresin and each were split into seven separate vials and then stored in the refrigerator. A vial from each of the duplicate samples was removed at various times and analyzed by HPLC. […] We therefore conclude that our sample preparation and analysis conditions are not changing the amounts of the two isomers and that the amounts measured are the amounts in the samples prior to sample preparation and analysis.

The nature of series [4]: Stability of zeaxanthin on spray drying of the methanol slurry. The conditions noted are these: spray dryer, inlet 120-160° C., outlet 60.5-87.2° C., nitrogen drying gas. How it is done:
In an experiment identical to the procedure described in Example 6, the zeaxanthin/methanol slurry was desolventized using a spray dryer. […] Inlet temperatures ranged from 120° C. to 160° C., outlet temp was 60.5° C. to 87.2° C., and rotary atomizer was set at 5.5 bar. Nitrogen was used as the drying gas.

A short description of series [5]: Stability of zeaxanthin to saponification / reflux in caustic aqueous methanolic potassium hydroxide. How it is done: In a procedure similar to that described in Example 2 after distilling away the hexane, the mixture was refluxed for a total of 40 hours and the content of zeaxanthin isomers was monitored by HPLC as a function of time. After refluxing for 40 hours the mixture was allowed to cool, then centrifuged to afford a supernatant and a crude precipitate. The crude precipitate was washed with methanol (4× by weight of crude precipitate) centrifuged and decanted to afford a wash solution and a refined precipitate. After desolventization, the powder was 59.0% pure zeaxanthin corresponding to a yield of 71%. The supernatant and the wash solution were both analyzed for zeaxanthin content and >99% of input zeaxanthin was accounted for, even after refluxing in caustic solution for 40 hours!

Values after ≈ are worked out from the molar mass of the structure shown. “Also recorded” adds a separate entry of the source.

A word on the solubility: it is the dissolved amount per volume that the medium holds.

With `CC1=C(/C=C/C(C)=C/C=C/C(C)=C/C=C/C=C(C)/C=C/C=C(C)/C=C/C2=C(C)CC(O)CC2(C)C)C(C)(C)CC(O)C1` (stereo not shown) [Zeaxanthin, zeaxanthin], the solubility worked out at 1630 µg/mL (≈ 2870 µM) in series [1] (solvent Acetone); 2960 µg/mL (≈ 5200 µM) in series [1] (solvent DCM (dichloromethane)); 1070 µg/mL (≈ 1880 µM) in series [1] (solvent EtOAc (ethyl acetate)); 40 µg/mL (≈ 70.3 µM) in series [1] (solvent EtOH (ethanol)); 68 µg/mL (≈ 120 µM) in series [1] (solvent Hexane); 81 µg/mL (≈ 142 µM) in series [1] (solvent IPA (isopropyl alcohol)). The solubility in series [1] (solvent Methanol) is 82 µg/mL (≈ 144 µM); in series [1] (solvent MtBE (methyl tert-butyl ether)), 726 µg/mL (≈ 1280 µM); in series [1] (solvent THF (tetrahydrofuran)), greater than 20400 µg/mL. Also, the “input zeaxanthin accounted for” value in series [2] (after sitting in caustic solution for two weeks (15 days), precipitate, supernatant and wash solutions) is recorded as greater than 99%; in series [5] (after refluxing in caustic solution for 40 hours, precipitate, supernatant and wash solution) it was greater than 99%. Also, in series [2] (strongly basic solution (pH~14), room temperature, 15 days), the “degradation / loss of zeaxanthin” value is reported as “no degradation of zeaxanthin was observed; also recorded: nor was any significant loss of zeaxanthin observed; also recorded: no loss in zeaxanthin content”. Also, the “change in amounts of cis and trans isomers” value in series [3] is “no change was observed”. Also, the degradation of zeaxanthin entry in series [4] is on record as “No degradation of zeaxanthin was observed”. For the same compound, the stability to degradation entry in series [5] (reflux in very basic aqueous methanolic solution) is reported as “stable to degradation”. This compound also displayed a loss of zeaxanthin in series [5] (saponification by the method of the present invention, Capsicum starting material) of less than 1%.
